Molecular target: Somatostatin receptor
Test: Dissociation constant binding to somatostatin receptor of At-20 mouse pituitary carcinoma cell membranes
Settings: pituitary gland cell

In the case of `C[C@H](O)[C@H](CO)NC(=O)[C@H](CS)NC(=O)[C@@H](NC(=O)[C@H](CCCCN)NC(=O)[C@@H](Cc1c[nH]c2ccccc12)NC(=O)[C@H](Cc1ccccc1)NC(=O)[C@H](CS)NC(=O)[C@@H](Cc1ccccc1)NC(=O)CN(CCN(CCN(CC(=O)O)CC(=O)O)CC(=O)O)CC(=O)O)[C@@H](C)O`, the Kd is reported as 5.57 nM.
